Read-outs that look alike come from different tables or passages of the source.
What was measured:
RORβ LBD = biological target: T1, RORβ LBD (Homo sapiens, UniProt Q92753); assay: ThermoFluor binding assay, RORβ LBD
T1 construct: made in house; host or cells: E. coli BL21DE3 GOLD, pET24a
T1 sequence (Q92753 201-452 isoform Q92753-1): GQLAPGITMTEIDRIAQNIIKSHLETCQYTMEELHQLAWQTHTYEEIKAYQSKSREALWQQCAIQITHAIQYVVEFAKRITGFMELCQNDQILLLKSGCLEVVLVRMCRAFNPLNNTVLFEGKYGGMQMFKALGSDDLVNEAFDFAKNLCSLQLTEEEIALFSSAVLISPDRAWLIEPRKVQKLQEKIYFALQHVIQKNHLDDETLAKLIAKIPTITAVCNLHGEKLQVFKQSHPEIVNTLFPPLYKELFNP
Method: Recombinant human RORγ, RORα and RORβ LBD proteins were prepared for ThermoFlour binding assay. The nucleotide sequences encoding the ligand binding domains (LBD) of human RORγ (Genbank accession no. NP005051, amino acid 237–497), RORα (Genbank accession no. NP599022, amino acid 304–556), and RORβ (Genbank accession no. NP008845, amino acid 201–452) were PCR-amplified and cloned into pET24a (Novagen) for expression in bacteria. All recombinant proteins contained an additional amino acid sequence of […] at the N-terminal of LBD. After transformation of the bacteria strain BL21DE3 GOLD (Agilent) with the plasmids, 10 to 20 L cultures were grown to 1 OD and recombinant protein expression was induced overnight at 16°C with 0.2mM isopropyl-beta-D-thiogalactopyranoside (IPTG) (Corning). […]. His-tagged proteins were collected with Ni-NTA resin (Qiagen) and purified with a HiTrap Q HP column (GE Life Sciences) eluted with a 40 CV gradient of 50-500mM NaCl.
The ThermoFluor® assay was established to measure the change in protein stability upon binding with compounds. 1-Anilinonaphthalene-8-Sulfonic Acid (1,8-ANS) (Invitrogen) was used as a fluorescent dye to label the test proteins. The assay was performed in polypropylene PCR microplates (TF-0384/k, Abgene) with a final assay of 3 μL reaction mixture per well overlaid with 1 μL silicone oil (Sigma-Aldrich). Assay plates were robotically loaded onto a thermostatically controlled PCR-type thermal block and then heated at a ramp-rate of 1°C/min. Fluorescence emission was initiated by continuous illumination with UV light (LC6, Hamamatsu) via fiber optic with a band-pass filter (380–400 nm) and detected with a CCD camera (Sensys, Roper Scientific) filtered to detect signal of 500 ± 25 nm. Reference wells contained recombinant LBD of RORγt, RORα or RORβ alone, and the assay conditions were as follows: 0.065 mg/mL RORγt LBD, 60 μM 1,8-ANS, 100 mM HEPES pH 7.0, 10 mM NaCl, 2.5 mM GSH, 0.002% Tween- 20; 0.1 mg/mL RORα, 70 μM 1,8-ANS, 25 mM HEPES pH 7.0, 50 mM NaCl, 0.001% Tween-20; 0.08 mg/mL RORβ, 60 μM 1,8-ANS, 50 mM HEPES pH 7.0, 100 mM NaCl, 0.001% Tween-20. All 3 assays were performed in the absence and in the presence of 100 μM co-activator peptide SRC1 ([…], England Peptide custom synthesis). The binding affinity of test compounds was estimated as described previously.

[1] = tested on: human CD4 T cells under Th17 conditions; assay: cells; conditions: read-out: Th17 Proliferation (IC50, nM)
D2S (h) = biological target: T2, D2S (h) (Homo sapiens, UniProt P14416); assay: Cerep selectivity panel; format: binding; conditions: for inhibition at 1 µM: read-out: % Inhibition at 1µM; for inhibition at 10 µM: read-out: % Inhibition at 10µM
T2 construct: purchased Cerep
T2 sequence (P14416 1-414 isoform P14416-2): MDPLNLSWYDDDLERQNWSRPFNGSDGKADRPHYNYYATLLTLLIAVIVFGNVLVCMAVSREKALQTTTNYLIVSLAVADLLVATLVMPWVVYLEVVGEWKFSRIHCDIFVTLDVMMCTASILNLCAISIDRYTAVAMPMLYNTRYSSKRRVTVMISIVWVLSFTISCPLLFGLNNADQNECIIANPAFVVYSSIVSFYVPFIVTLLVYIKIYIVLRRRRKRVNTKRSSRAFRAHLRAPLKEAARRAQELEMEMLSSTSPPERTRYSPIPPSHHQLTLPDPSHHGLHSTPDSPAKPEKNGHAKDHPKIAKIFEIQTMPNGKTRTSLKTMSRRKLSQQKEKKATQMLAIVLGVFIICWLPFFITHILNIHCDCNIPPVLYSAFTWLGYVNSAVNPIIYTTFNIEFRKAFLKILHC
Method: (§1) Supplementary file pone.0181868.s003.docx: S3 Table Selectivity profile of RORγt inverse agonists A, B, C and D. Compounds were evaluated at 1 μM and 10 μM in a panel of assays against 50 receptors, ion channels and transporters (Profile service by Cerep Inc.). (DOCX) Click here for additional data file.
(§2) S3 Table. RORɣt inverse agonists A, B, C and D were evaluated at 1 µM and 10 µM in a panel of assays against 50 receptors, ion channels and transporters (Profile service by Cerep Inc.).

A3 (h) = biological target: T3, A3 (h) (Homo sapiens, UniProt P0DMS8); assay: Cerep selectivity panel; format: binding; conditions: for inhibition at 1 µM: read-out: % Inhibition at 1µM; for inhibition at 10 µM: read-out: % Inhibition at 10µM
T3 construct: purchased Cerep
T3 sequence (P0DMS8 1-318): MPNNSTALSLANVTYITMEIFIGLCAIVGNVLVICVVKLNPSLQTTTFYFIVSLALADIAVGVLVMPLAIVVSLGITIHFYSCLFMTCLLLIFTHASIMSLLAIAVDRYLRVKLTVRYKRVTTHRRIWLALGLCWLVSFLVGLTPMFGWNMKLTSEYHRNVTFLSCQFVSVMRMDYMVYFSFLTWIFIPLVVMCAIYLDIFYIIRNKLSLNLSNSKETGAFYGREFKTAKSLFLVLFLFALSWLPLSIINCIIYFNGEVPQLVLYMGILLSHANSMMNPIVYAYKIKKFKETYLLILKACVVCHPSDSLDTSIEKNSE
Method: as §1, §2

5HT2A (h) = biological target: T4, 5HT2A (h) (Homo sapiens, UniProt P28223); assay: Cerep selectivity panel; format: binding; conditions: read-out: % Inhibition at 10µM
T4 construct: purchased Cerep
T4 sequence (P28223 whole entry): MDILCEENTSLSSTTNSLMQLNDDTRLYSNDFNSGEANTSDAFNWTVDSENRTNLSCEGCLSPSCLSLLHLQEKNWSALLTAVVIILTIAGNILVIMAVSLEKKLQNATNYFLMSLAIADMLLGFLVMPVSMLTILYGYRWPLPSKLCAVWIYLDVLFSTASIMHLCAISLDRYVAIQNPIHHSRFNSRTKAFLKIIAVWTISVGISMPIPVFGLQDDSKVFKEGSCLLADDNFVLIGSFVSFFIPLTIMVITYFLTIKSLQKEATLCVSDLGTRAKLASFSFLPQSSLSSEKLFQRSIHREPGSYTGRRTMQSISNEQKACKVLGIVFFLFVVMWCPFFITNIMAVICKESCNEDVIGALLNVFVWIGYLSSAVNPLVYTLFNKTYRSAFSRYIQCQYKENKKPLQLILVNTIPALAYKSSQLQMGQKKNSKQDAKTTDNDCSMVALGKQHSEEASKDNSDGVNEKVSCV
Method: as §1, §2

NK3 (h) = biological target: T5, NK3 (h) (Homo sapiens, UniProt P29371); assay: Cerep selectivity panel; format: binding; conditions: for inhibition at 1 µM: read-out: % Inhibition at 1µM; for inhibition at 10 µM: read-out: % Inhibition at 10µM
T5 construct: purchased Cerep
T5 sequence (P29371 1-465): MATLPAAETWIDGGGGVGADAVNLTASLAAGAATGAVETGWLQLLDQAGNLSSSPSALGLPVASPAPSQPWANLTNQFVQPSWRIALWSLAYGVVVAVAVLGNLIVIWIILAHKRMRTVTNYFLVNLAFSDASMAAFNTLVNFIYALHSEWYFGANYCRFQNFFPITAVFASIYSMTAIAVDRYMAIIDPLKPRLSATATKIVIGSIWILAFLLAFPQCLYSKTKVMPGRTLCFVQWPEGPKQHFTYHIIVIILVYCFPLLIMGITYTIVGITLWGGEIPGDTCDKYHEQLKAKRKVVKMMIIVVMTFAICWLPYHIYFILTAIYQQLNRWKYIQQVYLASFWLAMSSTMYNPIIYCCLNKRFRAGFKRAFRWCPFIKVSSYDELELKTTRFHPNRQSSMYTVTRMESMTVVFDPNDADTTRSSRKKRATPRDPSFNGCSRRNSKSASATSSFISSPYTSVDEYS
Method: as §1, §2

OP2 = assay: Cerep selectivity panel; format: binding
GABA = assay: Cerep selectivity panel; format: binding
ML1 = assay: Cerep selectivity panel; format: binding
[2] = tested on: human CD4 T cells, IFNγ production; assay: Th1 differentiation assay (IFNγ production); format: cell-based; conditions: 72 h
[3] = Homo sapiens, CD4+ T, read-out: Th1 Differentiation (IFNγ production) (IC50, nM)
[4] = recombinant human LBD, read-out: ThermoFlour Binding Assay (Kd, nM) RORβ

Structure (SMILES)	Kd (RORβ LBD) [nM]	IC50 [1] [nM]	inhibition at 1 µM (D2S (h)) [%]	inhibition at 1 µM (A3 (h)) [%]	inhibition at 10 µM (A3 (h)) [%]	inhibition at 10 µM (5HT2A (h)) [%]	inhibition at 1 µM (NK3 (h)) [%]	inhibition at 10 µM (NK3 (h)) [%]	% Inhibition at 10µM (OP2) [%]	% Inhibition at 1µM (GABA) [%]	% Inhibition at 1µM (ML1) [%]	% Inhibition at 10µM (ML1) [%]	IC50 [2, 3] [nM]	Kd (RORβ LBD; [4]) [nM]	further results
COc1nc2ccc([C@](O)(c3ccc(Cl)cc3)c3cncn3C)cc2c(Cl)c1Cc1ccc(-n2cccn2)cc1 [B]	> 29900	> 240	7	9	20	12	1	10	10	9	13	38	> 240		
COc1nc2ccc([C@@](O)(c3ccccc3)C3CCN(C(C)=O)CC3)cc2c(Cl)c1Cc1ccc(-n2cccn2)cc1 [C]		> 240	10	16	41		21	31	12		4	27	> 240	> 70000	% Inhibition at 10µM (GABA; 10 µM): 12%
COc1nc2ccc([C@@](O)(c3ccc(C)nc3C)c3cnnn3C)cc2c(Cl)c1Cc1ccc(C(F)(F)F)cc1 [compound A]		> 240							37	8		39		4940	inhibition at 1 µM (D2S (h); D2S (h), 1 µM): 12%; inhibition at 10 µM (D2S (h); D2S (h), 10 µM): 70%; inhibition at 1 µM (A3 (h); A3 (h), 1 µM): 49%; inhibition at 10 µM (A3 (h); A3 (h), 10 µM): 92%; inhibition at 10 µM (5HT2A (h); 5HT2A (h), 10 µM): 27%; inhibition at 1 µM (NK3 (h); NK3 (h), 1 µM): 9%; inhibition at 10 µM (NK3 (h); NK3 (h), 10 µM): 57%; % Inhibition at 1µM (OP2; 1 µM): 9%; IC50 ([2]; human CD4 T cells, 3 days, read-out: Th1 Differentiation (IFNγ production) (IC50)): > 240 nM
CN(C)c1nc2ccc(C(O)(c3ccncc3)c3cncn3C)cc2c(Cl)c1-c1ccccc1 (stereo not shown) [compound D]	1240		7		67	22		45					> 240		inhibition at 10 µM (D2S (h)): 25%
